Test results published in patent publication US12042492B2 (priority 2020, dated 2024).
“Also recorded” adds a separate entry of the source.

What was measured:
[1] = test system: Aβ40 and Aβ42 levels in mAPP N2a cells; experiment: Sandwich ELISA of soluble Aβ40 and Aβ42 levels in mAPP N2a cells; type: cell-based, mouse; conditions: ligand 1-treated mAPP N2a cells vs untreated mAPP cells
From the text: (§1) ELISA Ligand based inhibition of BACE1 activity, Aβ 40 and 42. BACE1 activity, Levels of Aβ40 and 42. To determine whether ligand 1 lowers BACE1 activity and reducing the Aβ40 and Aβ42 levels, the inventors measured BACE1 activity, Aβ40 and Aβ42 levels in mutant APP cells (N2a+mutant cDNA transfected) treated with ligand 1 using Sandwich ELISA.
(§2) The N2a cells grown for 6 days in a serum-free medium (1:1 mixture of DMEM and OptiMEM, plus penicillin and streptomycin (Invitrogen, Carlsbad, CA, USA) until the cells developed neuronal processes. As shown in (FIG. 10), these cells were used for 4 groups—one control group and 3 treatment groups. 1) untreated N2a cells (the control group), 2) N2a cells treated with ligand 1 (N2a+ligand 1), 3) N2a cells transfected mAPP with the (lipofectamine) (20 μM final concentration for 6 hrs (mAPP), 4) N2a cells transfected with mAPP cDNA for 6 hrs, treated with ligand 1 (mAPP+ligand 1 treatment group), N2a cells treated with ligand 1 for 24 hrs and then treated with the mAPP cDNA for 6 hrs (ligand 1+mAPP treatment group). […]
(§3) ELISA Ligand based BACE1 inhibition of Aβ 40 and 42. […] For each sample, Aβ1-40 and Aβ1-42 were measured with commercial colorimetric ELISA kits (Biosource International, Camarillo, CA, USA) specific for human. […] Protein concentrations of the homogenates were determined following the […], and Aβ was expressed as pg Aβ/mg protein.

[2] = test system: mAPP transfected N2a cells; experiment: Cell viability / apoptotic cell death in mAPP transfected N2a cells; type: cell-based, mouse
Description: The N2a cells grown for 6 days in a serum-free medium (1:1 mixture of DMEM and OptiMEM, plus penicillin and streptomycin (Invitrogen, Carlsbad, CA, USA) until the cells developed neuronal processes. As shown in (FIG. 10), these cells were used for 4 groups—one control group and 3 treatment groups. 1) untreated N2a cells (the control group), 2) N2a cells treated with ligand 1 (N2a+ligand 1), 3) N2a cells transfected mAPP with the (lipofectamine) (20 μM final concentration for 6 hrs (mAPP), 4) N2a cells transfected with mAPP cDNA for 6 hrs, treated with ligand 1 (mAPP+ligand 1 treatment group), N2a cells treated with ligand 1 for 24 hrs and then treated with the mAPP cDNA for 6 hrs (ligand 1+mAPP treatment group). As shown in (FIG. 10), the inventors performed 4 independent cell cultures and treatments for all experiments (n=4).
Cell viability and apoptotic cell death MTT assay. Ligand 1 treated N2a cells, cell based apoptosis assay was performed using Cellometer Vision CBA Image Cytometry System (Nexcelom Bioscience LLC, Lawrence, MA) with two fluorophore Annexin V-FITC and Propidium Iodide (PI) staining solution, according to manufacturer's instructions. Briefly, cells were harvested using trypsin, then spin down at 300 g for three minutes and pellets were washed with 1×PBS, cells were counted using hematocytometer. […]

N2a cells = experiment: Transmission electron microscopy of mitochondrial number and length; type: cell-based, mouse; conditions: TEM
From the text: Transmission electron microscopy. To determine the effects of ligand 1 on the number and length of mitochondria, the inventors used transmission electron microscopy on cells with untreated N2a cells, […], mAPP, and mAPP+ligand 1.
Transmission electron microscopy of mitochondria. To determine the protective effects ligand 1 the number and morphology of mitochondria and the rescue effects of Ligand 1, on Aβ induced mitochondrial toxicity. The inventors conducted transmission electron microscopy (TEM) of N2a cells from control and experimental treatments (n=4). Treated and untreated N2a cells were fixed in 100 mM sodium cacodylate (pH 7.2), 2.5% glutaraldehyde, 1.6% paraformaldehyde, 0.064% picric acid, and 0.1% ruthenium red. They were gently washed and post-fixed for 1 hr in 1% osmium tetroxide plus […] potassium ferricyanide, in 100 mM sodium cacodylate, pH 7.2. After a thorough rinsing in water, the N2a cells were dehydrated, infiltrated overnight in 1:1 acetone:Epon 812, infiltrated for 1 hr with 100% Epon 812 resin, and embedded in the resin. After polymerization, 60- to 80-nm thin sections were cut on a Reichert ultramicrotome and stained for 5 min in lead citrate. […] The numbers of mitochondria were counted in the control N2a cells (number of cells=50) and experimental groups (number of cells per group=40), and statistical significance was determined, using one-way ANOVA.

mAPP N2a cells = experiment: Immunofluorescence analysis of BACE1, 6E10 and CTF; type: cell-based, mouse; conditions: ligand 1-treated mAPP N2a cells relative to untreated mAPP N2a cells, P=0.01
Description: Immunofluorescence analysis of BACE1, 6E10 and CTF. To determine the effect of ligand 1 on BACE1, 6E10 and C-terminal fragments, immunofluorescence analysis was performed on four different groups of cells: 1) untreated N2a cells versus; 2) N2a+ligand 1; 3); cells transfected with mAPP and 4) mAPP+ligand 1.
Immunofluorescence analysis of BACE1, 6E10 and CTF. To determine BACE1, 6E10, CTF inhibition, mitochondrial network, immunofluorescence analysis was performed using mutant AβPP cells and untransfected N2a and TOM20 antibody as described in (35). The fixed cells were washed with warm PBS, fixed in freshly prepared 4% paraformaldehyde in PBS for 10 minutes, then washed with PBS and permeabilized with 0.1% Triton-X100 in PBS. They were blocked with a 1% blocking solution (Invitrogen) for 1 hour at room temperature. All sections were incubated overnight with TOM20 antibody (1:250 dilution). After incubation, the cells were washed 3 times with PBS, for 10 minutes each. The cells were incubated with a secondary antibody conjugated with Fluor 488 (Invitrogen) for 1 hour at room temperature. The cells were washed 3 times with PBS and mounted on slides. Photographs were taken with a multiphoton laser scanning microscope system (ZeissMeta LSM510). To quantify the immunoreactivity of TOM20 antibody for each treatment, 10-15 photographs were taken at ×40 magnifications, and statistical significance was assessed, using one-way ANOVA for TOM20 protein.

BACE1 = biological target: T1, BACE1 (Mus musculus, UniProt P56818); experiment: Sandwich ELISA of BACE1 activity in mAPP N2a cells; type: cell-based; conditions: mAPP cells treated with ligand 1 relative to untreated mAPP cells; P=0.001
T1 construct: endogenous in cells; host or cells: N2a mouse neuroblastoma cells (ATCC) transfected with mutant APP Swe/Ind cDNA
T1 sequence (P56818 46-501): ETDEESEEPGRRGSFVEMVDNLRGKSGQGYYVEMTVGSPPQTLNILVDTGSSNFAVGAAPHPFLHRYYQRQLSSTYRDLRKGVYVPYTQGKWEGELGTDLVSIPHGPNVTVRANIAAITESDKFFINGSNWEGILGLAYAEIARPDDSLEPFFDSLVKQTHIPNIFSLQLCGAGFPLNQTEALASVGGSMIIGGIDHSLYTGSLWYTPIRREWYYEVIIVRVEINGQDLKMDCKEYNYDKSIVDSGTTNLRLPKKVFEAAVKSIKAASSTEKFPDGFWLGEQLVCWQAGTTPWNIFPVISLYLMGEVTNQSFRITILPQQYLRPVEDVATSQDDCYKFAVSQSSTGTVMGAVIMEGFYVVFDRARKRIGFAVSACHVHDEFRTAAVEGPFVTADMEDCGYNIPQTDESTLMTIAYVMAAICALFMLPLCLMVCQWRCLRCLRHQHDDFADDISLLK
From the text: as §1, §2, §3

“[(6As,8S,10aS,12aS)-10a, 12a-dimethyl-2-oxo-3,4,4a,4b,5,6,6a,7,8,9,10,10b,11,12-tetradecahydro-1H-naphtho[2,1-f]quinolin-8-yl] 4-[4-[bis(2-chloroethyl)amino]phenyl]butanoate [Ligand 1]” was tested, and the Aβ42 level ([1]; P=0.005) was “significantly lower; also recorded: reduced”, the Aβ40 level ([1]; soluble, P=0.01) was “decreased; also recorded: reduced” and the Apoptotic cell death ([2]; mAPP transfected cells) was “reduced”. For the same substance, the Cell viability ([2]; mAPP+ligand 1 compared to mAPP cells, P=0.181) was “not significantly increased”, the Mitochondrial length (N2a cells; cells treated with ligand 1 relative to untreated cells) was “significantly increased” and the Number of mitochondria (N2a cells; mAPP+ligand 1 vs mAPP cells, P=0.01) was “reduced”. The “6E10 immunoreactivity (mutant APP and Aβ)” value (mAPP N2a cells) was “significantly lower; also recorded: significantly reduced”, the BACE1 immunoreactivity (mAPP N2a cells) was “significantly lower; also recorded: significantly reduced” and the “C-terminal fragment (CTF) immunoreactivity” value (mAPP N2a cells) was “significantly lower; also recorded: significantly reduced”. The BACE1 activity (BACE1) was “significantly lower; also recorded: significantly reduced”.
